Data set [1] relates to HBV DNA replication in HepG2.2.15 cells. The experiment in a line: In vitro anti-HBV activity test (quantitative assay of intracellular HBV DNA), HepG2.2.15 cells, quantitative PCR. It counts as cell-based, hepatitis B virus (HBV). Conditions: HBV DNA by quantitative PCR.
The subject of data set [2] is HepG2 cells. As to the kind of experiment: Effect on in vitro proliferation of HepG2 cells (CellTiter-Glo). The class given is cell-based. As to conditions: HepG2 cells, 72 hours, CellTiter-Glo; read-out: CC50. Background: Cellular ATP, detected with luciferase, serves as a proxy for viable cell number.
Data set [3] is described as follows: Pharmacokinetics assay in rats after intragastrical administration (LC/MS/MS of plasma). The class given is in vivo. As to conditions: SD rats, 2 mg/kg.

A value given as a limit tells only on which side of the number the result lay.

What is called EC50 is the concentration needed to bring the measured effect to its halfway point. A low value points to an effect from little substance. In general, CC50 refers to the concentration giving 50% cytotoxicity. `C[C@H]1Cn2nnc(C(=O)N[C@H](C)C(F)(F)F)c2CN1C(=O)Nc1ccc(F)c(C#N)c1` [Example 45, (S)—N^5-(3-Cyano-4-fluorophenyl)-6-methyl-N^3-((R)-1,1,1-trifluoropropan-2-yl)-6,7-dihydro-[1,2,3]triazolo[1,5-α]pyrazine-3,5(4H)-dicarboxamide]: the “Emax (effect value of the compound to maximally inhibit HBV DNA replication)” value in data set [1] turned out to be 102%. The compound also gave an EC50 in data set [1] (compound treatment Day 2 to Day 8) of 38 nM. Besides, the CC50 in data set [2] was greater than 100000 nM. Moreover, in data set [3], the “Area under curve AUC” value was 17162 ± 5791 ng·h/mL, the “Bioavailability (%) F %” value was found to be 110%, the “Clearance CLz/F” value stood at 2.13 ± 0.73 mL/min/kg and the “Half-life T1/2” value came to 19.2 ± 7.16 h. For the same compound, in data set [3], the “Plasma concentration Cmax” value was determined as 715 ± 187 ng/mL and the “Residence time MRT” value is 27.4 ± 9.5 h.

These data come from patent US11247998B2, “Piperazine heteroaryl derivative, preparation method therefor and use of same in medicine” (priority 2017, dated 2022).
